Patent US20250228835A1, “PYRIDINYLOXYPYRIDINES AND RELATED COMPOUNDS AND THEIR USE IN TREATING MEDICAL CONDITIONS” (Rectify Pharmaceuticals, Inc., priority 2024, published 2025)

Experiments:
ABCD2 WT = biological target: T1, ABCD2 WT (Homo sapiens, UniProt Q9UBJ2); assay: D2 correction dose-response assay: ABCD2 WT HiBit protein expression; assay type: cell-based; conditions: HEK-293/ABCD2 WT cells, 24 hours treatment, HiBit luminescence; class combines EC50 and Mean MaxAct (fold); read-out: ABCD2 WT EC50, Emax
T1 construct: expressed in transfected cells
T1 sequence (Q9UBJ2 1-740): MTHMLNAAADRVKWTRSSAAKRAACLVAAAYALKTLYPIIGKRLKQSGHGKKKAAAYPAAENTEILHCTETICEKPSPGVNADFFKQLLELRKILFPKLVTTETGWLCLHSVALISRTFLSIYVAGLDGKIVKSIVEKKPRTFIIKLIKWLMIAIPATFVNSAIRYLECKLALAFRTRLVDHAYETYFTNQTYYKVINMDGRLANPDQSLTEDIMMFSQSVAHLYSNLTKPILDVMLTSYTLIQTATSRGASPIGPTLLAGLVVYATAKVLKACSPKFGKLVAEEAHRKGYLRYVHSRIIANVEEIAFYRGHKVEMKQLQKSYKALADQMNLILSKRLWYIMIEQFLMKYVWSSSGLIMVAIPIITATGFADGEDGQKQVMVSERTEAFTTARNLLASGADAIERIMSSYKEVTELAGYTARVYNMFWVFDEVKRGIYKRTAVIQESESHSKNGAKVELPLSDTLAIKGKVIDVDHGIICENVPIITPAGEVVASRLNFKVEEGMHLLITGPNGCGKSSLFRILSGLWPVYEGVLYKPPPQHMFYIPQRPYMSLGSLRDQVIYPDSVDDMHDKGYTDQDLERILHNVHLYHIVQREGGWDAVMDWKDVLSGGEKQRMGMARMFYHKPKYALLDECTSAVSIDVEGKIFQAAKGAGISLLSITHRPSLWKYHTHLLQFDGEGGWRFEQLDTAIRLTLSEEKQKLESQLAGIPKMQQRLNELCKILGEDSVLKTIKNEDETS
Experimental: Exemplary compounds were evaluated in a D2 correction dose-response assay.
To assess activity against ABCD2, the compounds were screened in an assay measuring protein expression, using cells transfected with cDNA encoding HiBit-tagged ABCD2 wild-type. Here we describe an assay for measuring the expression of the wild type of human ABCD2 (henceforth referred to as ABCD2 WT) and the use of this assay to measure the efficacy of compounds to increase the expression of ABCD2 WT. The assay was designed to characterize the efficacy and potency of compounds to increase the expression of ABCD2 WT by calculating an Emax and EC50 value. HEK-293 cells stably expressing ABCD2 WT (HEK-293/ABCD2 WT) were used for this assay and were maintained at 37° C. (5% CO2, humidified) in Dulbecco's Modified Eagle Medium (DMEM, Gibco product #12100) supplemented with 10% fetal bovine serum (Biosera product #FB-1058/500), 1% PenStrep (HDB product #15140-122), and 0.5 mg/mL puromycin (Gibco product #A11138-03). For the assay, the HEK-293/ABCD2 WT cells were seeded in white/opaque 384-well plates (Corning product #3570) at 10,000 cells/well in 20 μl growth medium and allowed to settle for 4 hours at 37° C. (5% CO2, humidified). Compound serial dilutions are prepared in DMSO as three hundred times (333×) the final concentration and using a dilution factor of 3 using Bravo (Agilent). After the four-hour incubation period, 60 nL of DMSO solutions are transferred to the assay plate.
Dose response curves include eleven doses with the top final concentration at 30 μM in 0.3% DMSO. Liquid handling is performed with ECHO 550 Acoustic Liquid Handler (Labcyte). After addition of compound treatment, cells are incubated for 24 hours at 37° C. (5% CO2, humidified). After the 24-hour treatment, plates are allowed to equilibrate to room temperature for 10 minutes. Using Dragonfly Automated Liquid Handler (TTP LabTech), 20 μl of HiBit lytic assay reagent (Promega, product #N3040), which is prepared according to manufacturer's instructions, is added to each well. The plates are rotated at room temperature for 2 minutes and incubated for 1 hour at 25° C. before luminescent signal is acquired using an EnVision Multimode Plate Reader (PerkinElmer).

ABCC6 WT = biological target: T2, ABCC6 WT (Homo sapiens, UniProt O95255); assay: ABCC6 WT assay: HiBit protein expression; assay type: cell-based; conditions: HEK-293 cells transiently expressing HiBit-tagged ABCC6 WT; 24 h treatment; top concentration 20 μM; read-out: ABCC6 WT EC50, Emax
T2 construct: expressed in transfected cells; host or cells: HEK-293 (transient, Lipofectamine 2000)
In short: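 HEK-293 cells transiently transfected with HiBit-tagged human ABCC6 WT cDNA, seeded 24 h post-transfection, treated 24 h at 37° C with ten 2-fold doses (top 20 μM final, 0.15% DMSO). HiBit lytic luminescence reports protein expression; Emax and EC50 derived.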

T2 sequence (O95255 whole entry): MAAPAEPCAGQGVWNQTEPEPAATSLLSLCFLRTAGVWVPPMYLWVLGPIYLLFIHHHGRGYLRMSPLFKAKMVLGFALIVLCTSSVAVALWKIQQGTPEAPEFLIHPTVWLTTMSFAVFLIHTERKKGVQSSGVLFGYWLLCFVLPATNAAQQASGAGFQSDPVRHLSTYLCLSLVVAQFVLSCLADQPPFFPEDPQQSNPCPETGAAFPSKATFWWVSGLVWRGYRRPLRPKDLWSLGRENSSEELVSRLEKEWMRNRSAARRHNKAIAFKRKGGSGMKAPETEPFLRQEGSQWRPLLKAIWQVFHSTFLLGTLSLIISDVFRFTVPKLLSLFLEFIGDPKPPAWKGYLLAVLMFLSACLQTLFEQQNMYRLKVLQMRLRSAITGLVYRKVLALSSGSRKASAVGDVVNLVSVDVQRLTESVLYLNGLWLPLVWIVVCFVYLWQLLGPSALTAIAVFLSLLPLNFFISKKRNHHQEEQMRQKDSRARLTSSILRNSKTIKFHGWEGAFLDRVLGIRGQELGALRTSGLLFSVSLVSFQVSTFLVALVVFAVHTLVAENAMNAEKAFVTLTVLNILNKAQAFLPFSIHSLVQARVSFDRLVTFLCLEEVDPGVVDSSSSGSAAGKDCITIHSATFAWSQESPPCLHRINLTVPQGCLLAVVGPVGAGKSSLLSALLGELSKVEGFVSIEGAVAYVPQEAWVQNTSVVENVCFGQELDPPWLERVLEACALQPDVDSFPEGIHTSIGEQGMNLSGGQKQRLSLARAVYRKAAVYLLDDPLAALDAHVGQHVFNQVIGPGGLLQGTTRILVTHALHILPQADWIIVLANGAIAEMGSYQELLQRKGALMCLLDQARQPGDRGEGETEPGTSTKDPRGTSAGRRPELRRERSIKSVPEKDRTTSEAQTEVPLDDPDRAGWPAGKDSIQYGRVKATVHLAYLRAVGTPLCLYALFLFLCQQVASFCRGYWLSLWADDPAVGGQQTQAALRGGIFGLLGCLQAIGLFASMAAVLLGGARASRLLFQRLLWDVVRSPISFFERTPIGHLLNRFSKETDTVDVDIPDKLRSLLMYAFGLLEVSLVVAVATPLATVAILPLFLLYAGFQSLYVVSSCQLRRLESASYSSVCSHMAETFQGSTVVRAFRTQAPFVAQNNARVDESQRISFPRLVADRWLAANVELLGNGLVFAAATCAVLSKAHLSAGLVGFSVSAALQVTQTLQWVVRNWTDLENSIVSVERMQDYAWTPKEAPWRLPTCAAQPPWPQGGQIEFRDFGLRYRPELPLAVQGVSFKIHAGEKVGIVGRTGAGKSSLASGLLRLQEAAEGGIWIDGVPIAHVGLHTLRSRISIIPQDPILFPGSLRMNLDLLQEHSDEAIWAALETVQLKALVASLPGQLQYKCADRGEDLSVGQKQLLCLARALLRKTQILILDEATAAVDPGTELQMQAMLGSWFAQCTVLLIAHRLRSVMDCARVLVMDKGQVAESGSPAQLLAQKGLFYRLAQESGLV

SMILES	EC50 (ABCD2 WT) [nM]	EC50 (ABCC6 WT) [nM]
Cc1cc(C)c(Oc2nc(-n3cc(C)cn3)ccc2NS(C)(=O)=O)c(C)c1 [Compound I-11]	1000 to 10000	1000 to 10000
Cc1cc(C)c(Oc2nc(-n3cnc(C)c3)ccc2NS(C)(=O)=O)c(C)c1 [Compound I-12]	< 1000	< 1000
Cc1cc(C)c(Oc2nc(-c3cnn(C)c3C)ccc2NS(C)(=O)=O)c(C)c1 [Compound I-13]	> 25000	< 1000
Cc1cc(C)c(Oc2nc(-c3cnn(C)c3)ccc2NS(C)(=O)=O)c(C)c1 [Compound I-14]	1000 to 10000	1000 to 10000
Cc1cc(C)c(Oc2nc(N3CCN(C(=O)C4(C)CC4)CC3)ccc2NS(C)(=O)=O)c(C)c1 [Compound I-15]	> 25000	1000 to 10000
COC(=O)N1CCN(c2ccc(NS(C)(=O)=O)c(Oc3c(C)cc(C)cc3C)n2)CC1 [Compound I-16]	10000 to 25000	1000 to 10000
CC(=O)N1CCN(c2ccc(NS(C)(=O)=O)c(Oc3c(C)cc(C)cc3C)n2)CC1 [Compound I-17]	1000 to 10000	1000 to 10000
Cc1nc(Oc2nc(-c3cncc(C#N)c3)ccc2NS(C)(=O)=O)c(C)s1 [Compound I-107]	< 1000	< 1000
Cc1cc(Oc2nc(-c3cncc(C#N)c3)ccc2NS(C)(=O)=O)nn1C [Compound I-113]	< 25000	1000 to 10000
Cc1nn(C)c(C)c1Oc1nc(-c2cncc(C#N)c2)ccc1NS(C)(=O)=O [Compound I-115]	< 1000	< 1000
Cc1cc(C)c(Oc2nc(-c3cncc(S(C)(=N)=O)c3)ccc2NS(C)(=O)=O)c(C)n1 (stereo not shown) [Compound I-116]	> 25000	≥ 25000
Cc1nc(C2CC2)c(Cl)cc1Oc1nc(-c2cncc(C#N)c2)ccc1NS(C)(=O)=O [Compound I-120]	1000 to 10000	< 1000
Cc1cc(Oc2nc(-c3cncc(C#N)c3)ccc2NS(C)(=O)=O)c(C)nc1C1CC1 [Compound I-127]	> 25000	< 1000
Cc1cc(OC(F)(F)F)nc(C)c1Oc1nc(-c2cncc(C#N)c2)ccc1NS(C)(=O)=O [Compound I-131]	< 1000	< 1000
Cc1cc(OC2CC2)nc(C)c1Oc1nc(-c2cncc(C#N)c2)ccc1NS(C)(=O)=O [Compound I-132]	< 1000	< 1000
Cc1nc(C)c(Oc2nc(-c3cncc(C#N)c3)ccc2NS(C)(=O)=O)c(C2CC2)n1 [Compound I-165]	1000 to 10000	< 1000
Cc1cc(C)c(Oc2nc(-c3cncc(C#N)c3)ccc2N(C)S(C)(=O)=O)c(C)n1 [Compound I-166]	1000 to 10000	1000 to 10000
CNS(=O)(=O)c1ccc(-c2cncc(C#N)c2)nc1Oc1c(C)nc(C(F)(F)F)nc1C [Compound I-167]	1000 to 10000	1000 to 10000
CNS(=O)(=O)c1ccc(-c2cncc(C#N)c2)nc1Oc1c(C)cc(C(F)(F)F)nc1C [Compound I-168]	1000 to 10000	1000 to 10000
Cc1nc(N2CC(S(C)(=O)=O)C2)nc(C)c1Oc1nc(-c2cncc(C#N)c2)ccc1NS(C)(=O)=O [Compound I-169]	10000 to 25000	1000 to 10000
Cc1nc(N2CC(F)(F)C2)nc(C)c1Oc1nc(-c2cncc(C#N)c2)ccc1NS(C)(=O)=O [Compound I-170]	1000 to 10000	< 1000
Cc1cc(C2CC2)c(Oc2nc(-c3cncc(C#N)c3)ccc2NS(C)(=O)=O)c(C)n1 [Compound I-171]	< 1000	< 1000

SMILES	EC50 (ABCD2 WT) [nM]	EC50 (ABCC6 WT) [nM]
Cc1cc(C)c(Oc2nc(-c3cncc(C#N)c3)ccc2NS(=O)(=O)C2(C)CC2)c(C)n1 [Compound I-172]	> 25000	1000 to 10000
Cc1nc(C(F)F)nc(C)c1Oc1nc(-c2cncc(C#N)c2)ccc1NS(C)(=O)=O [Compound I-173]	< 1000	< 1000
Cc1nc(C2COC2)nc(C)c1Oc1nc(-c2cncc(C#N)c2)ccc1NS(C)(=O)=O [Compound I-174]	1000 to 10000	< 1000
Cc1nc(C(F)F)nc(C)c1Oc1nc(-c2cncc(Cl)c2)ccc1NS(C)(=O)=O [Compound I-175]	> 25000	< 1000
Cc1cc(C)c(Oc2nc(-c3cncc(C#N)c3)ccc2NS(C)(=O)=O)c(OC2CC2)n1 [Compound I-176]	< 1000	< 1000
Cc1cc(N2CCC2)nc(C)c1Oc1nc(-c2cncc(C#N)c2)ccc1NS(C)(=O)=O [Compound I-177]	> 25000	< 1000
Cc1nc(OC2CC2)c(C(F)(F)F)cc1Oc1nc(-c2cncc(C#N)c2)ccc1NS(C)(=O)=O [Compound I-178]	1000 to 10000	< 1000
Cc1nc(C2CC2)c(C(F)F)cc1Oc1nc(-c2cncc(C#N)c2)ccc1NS(C)(=O)=O [Compound I-179]	< 1000	< 1000
Cc1cc(N2CC(F)(F)C2)nc(C)c1Oc1nc(-c2cncc(C#N)c2)ccc1NS(C)(=O)=O [Compound I-180]	> 25000	< 1000
Cc1nc(C2CCC2)nc(C)c1Oc1nc(-c2cncc(C#N)c2)ccc1NS(C)(=O)=O [Compound I-181]	> 25000	< 1000
Cc1cc(Oc2nc(-c3cncc(C#N)c3)ccc2NS(C)(=O)=O)c(C)nc1C(F)(F)F [Compound I-182]	< 1000	< 1000
Cc1nc(C2CC2)nc(C)c1Oc1nc(-c2cncc(C#N)c2)ccc1NS(C)(=O)=O [Compound I-183]	< 1000	< 1000
Cc1nc(C2CC2)c(C(F)(F)F)cc1Oc1nc(-c2cncc(C#N)c2)ccc1NS(C)(=O)=O [Compound I-184]	< 1000	< 1000
Cc1cc(C)c(Oc2nc(-c3cncc(N4CC(F)C4)c3)ccc2NS(C)(=O)=O)c(C)n1 [Compound I-185]	< 1000	< 1000
Cc1cc(C)c(Oc2nc(-c3ccn(C)c(=O)c3)ccc2NS(C)(=O)=O)c(C)n1 [Compound I-186]	> 25000	< 25000
Cc1cc(C)c(Oc2nc(-c3cc[nH]c(=O)c3)ccc2NS(C)(=O)=O)c(C)n1 [Compound I-187]	> 25000	≥ 25000
COc1cc(-c2ccc(NS(C)(=O)=O)c(Oc3c(C)cc(C)nc3C)n2)ccn1 [Compound I-188]	1000 to 10000	< 1000
Cc1cc(C)c(Oc2nc(-c3cncc(N4CCC4)c3)ccc2NS(C)(=O)=O)c(C)n1 [Compound I-190]	< 1000	< 1000
Cc1nc(C)c(Oc2nc(-c3cncc(C(F)F)c3)ccc2NS(C)(=O)=O)c(C)n1 [Compound I-191]	10000 to 25000	1000 to 10000
Cc1nc(C)c(Oc2nc(-c3cncc(C(F)(F)F)c3)ccc2NS(C)(=O)=O)c(C)n1 [Compound I-192]	> 25000	< 1000
Cc1nc(C)c(Oc2nc(-c3cncc(C4CC4)c3)ccc2NS(C)(=O)=O)c(C)n1 [Compound I-193]	< 1000	< 1000
Cc1cc(C)c(Oc2nc(-c3cncc(C4CN(C)C4)c3)ccc2NS(C)(=O)=O)c(C)n1 [Compound I-194]	> 25000	≥ 25000
